Values joined by “and” are separate entries in the source; they are usually repeats but may differ in a detail not shown here. Identical values can stand only once. Like-named read-outs stand apart in the source and are kept apart here.
Experiments:
[1] = target: ABCB1 (Homo sapiens, UniProt P08183); assay: JC-1 efflux inhibition dose response, flow cytometry, Jurkat-DNR cells; conditions: Jurkat-DNR cells over-expressing ABCB1, averages of two to four replicates
How it was run: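 Jurkat-DNR cells pre-stained with 1 μM JC-1 were incubated with compound (final 50 μM to 69 nM, […]) at 1×10^6 cells/mL, rotated 30 min at 25° C. Retained JC-1 read by flow cytometry (488 nm excitation, 530/40 nm emission). Curves fitted to a four-parameter logistic.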

[2] = target: T1, ABCB1 / ABCG2 (Homo sapiens, UniProt Q9UNQ0); assay: JC-1 efflux inhibition dose response, flow cytometry, Ig-MXP3 cells; conditions: human, probe JC-1 (1 µM), ~Fold G2 Selective (B1/G2), quotient of average ABCB1 IC50 and average ABCG2 IC50, efflux assay
T1 sequence (Q9UNQ0 1-655): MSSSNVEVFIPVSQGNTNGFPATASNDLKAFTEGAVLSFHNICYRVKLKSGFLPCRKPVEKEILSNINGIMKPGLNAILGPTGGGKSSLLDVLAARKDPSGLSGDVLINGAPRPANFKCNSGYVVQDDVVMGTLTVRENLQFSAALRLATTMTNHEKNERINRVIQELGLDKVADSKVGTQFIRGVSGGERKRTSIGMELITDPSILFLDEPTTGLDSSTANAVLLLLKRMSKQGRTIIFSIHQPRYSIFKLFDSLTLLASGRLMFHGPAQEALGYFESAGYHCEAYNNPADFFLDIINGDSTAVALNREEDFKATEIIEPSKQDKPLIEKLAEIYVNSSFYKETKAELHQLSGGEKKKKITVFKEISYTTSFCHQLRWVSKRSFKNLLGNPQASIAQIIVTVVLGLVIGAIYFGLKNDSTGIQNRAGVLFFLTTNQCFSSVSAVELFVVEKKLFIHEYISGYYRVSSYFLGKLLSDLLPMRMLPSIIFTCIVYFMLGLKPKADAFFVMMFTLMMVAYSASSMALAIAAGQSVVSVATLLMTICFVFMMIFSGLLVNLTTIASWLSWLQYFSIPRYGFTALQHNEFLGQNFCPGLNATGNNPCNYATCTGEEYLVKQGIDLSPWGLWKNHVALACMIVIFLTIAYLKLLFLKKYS
How it was run: (§1)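 Ig-MXP3 (ABCG2) and Jurkat-DNR (ABCB1) cells, run separately, are pre-stained with 1 μM JC-1 and added to compound in PBS; retained dye is read by high-throughput flow cytometry with time-gated analysis.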

[3] = target: T2, ABCG2 (Homo sapiens, UniProt Q9UNQ0); assay: as above; conditions: for ~Fold G2 Selective (B1/G2): quotient of average ABCB1 IC50 and average ABCG2 IC50, efflux assay
T2 sequence (Q9UNQ0 1-655): T1 sequence (Q9UNQ0 1-655)
How it was run: as §1

[4] = test system: ABCB1 over-expressing Jurkat-DNR cells; assay: Chemoreversal assay: potentiation of daunorubicin (DNR) killing; format: cell-based; conditions: constant 100 nM DNR, varied inhibitor dose, read-out: CR50 ABCB1
[5] = test system: ABCG2 over-expressing Ig-MXP3 cells; assay: Chemoreversal assay: potentiation of mitoxantrone (MTX) killing; format: cell-based; conditions: Ig-MXP3 cells, constant 30 nM MTX, varied inhibitor dose; read-out: CR50 ABCG2
[6] = test system: Jurkat-DNR cells; assay: Direct cytotoxicity (Toxic Dose 50) without chemotherapeutic
Protocol: Cells (ABCB1, Jurkat-DNR or ABCG2 Ig-MXP3) are incubated with the test compound (3 order of magnitude concentration range) over a 3-day and 7-day period in the presence of the inhibitor and chemotherapeutic (ABCB1, DNR or ABCG2 MTX), such that a cell concentration of at least 1×10^5 cells/mL is maintained. Cell viability is determined by trypan blue staining and enumeration under light microscopy. […] A chemoreversal index (Chemoreversal 50, CR50) is determined from the viability assessment. Using a similar approach, a direct cytotoxicity index (Toxic Dose 50, TD50) is determined by assessment of cell death of cells grown in media alone.
Cells (ABCB1, Jurkat-DNR or ABCG2 Ig-MXP3) were incubated with the test compound in a 3 order of magnitude concentration range over three and seven day periods in the presence of the inhibitor and chemotherapeutic (ABCB1, 100 nM DNR or ABCG2 30 nM MTX), such that a cell concentration of at least 1×10^5 cells mL^−1 was maintained. Cell viability was determined by trypan blue staining and enumeration under light microscopy. […] A chemoreversal index (Chemoreversal 50, CR50) was determined from the viability assessment. Using a similar approach, a direct cytotoxicity index (Toxic Dose 50, TD50) was determined by assessment of cell death of cells grown in media alone.

[7] = test system: Ig-MXP3 cells; assay: as above; format: cell-based
[8] = IC50 ABCB1 (efflux inhibition of JC-1 substrate)
[9] = Jurkat-DNR cells, inhibitor without chemotherapeutic
[10] = Ig-MXP3 cells, inhibitor without chemotherapeutic

Sequence of ABCB1 (P08183 whole entry): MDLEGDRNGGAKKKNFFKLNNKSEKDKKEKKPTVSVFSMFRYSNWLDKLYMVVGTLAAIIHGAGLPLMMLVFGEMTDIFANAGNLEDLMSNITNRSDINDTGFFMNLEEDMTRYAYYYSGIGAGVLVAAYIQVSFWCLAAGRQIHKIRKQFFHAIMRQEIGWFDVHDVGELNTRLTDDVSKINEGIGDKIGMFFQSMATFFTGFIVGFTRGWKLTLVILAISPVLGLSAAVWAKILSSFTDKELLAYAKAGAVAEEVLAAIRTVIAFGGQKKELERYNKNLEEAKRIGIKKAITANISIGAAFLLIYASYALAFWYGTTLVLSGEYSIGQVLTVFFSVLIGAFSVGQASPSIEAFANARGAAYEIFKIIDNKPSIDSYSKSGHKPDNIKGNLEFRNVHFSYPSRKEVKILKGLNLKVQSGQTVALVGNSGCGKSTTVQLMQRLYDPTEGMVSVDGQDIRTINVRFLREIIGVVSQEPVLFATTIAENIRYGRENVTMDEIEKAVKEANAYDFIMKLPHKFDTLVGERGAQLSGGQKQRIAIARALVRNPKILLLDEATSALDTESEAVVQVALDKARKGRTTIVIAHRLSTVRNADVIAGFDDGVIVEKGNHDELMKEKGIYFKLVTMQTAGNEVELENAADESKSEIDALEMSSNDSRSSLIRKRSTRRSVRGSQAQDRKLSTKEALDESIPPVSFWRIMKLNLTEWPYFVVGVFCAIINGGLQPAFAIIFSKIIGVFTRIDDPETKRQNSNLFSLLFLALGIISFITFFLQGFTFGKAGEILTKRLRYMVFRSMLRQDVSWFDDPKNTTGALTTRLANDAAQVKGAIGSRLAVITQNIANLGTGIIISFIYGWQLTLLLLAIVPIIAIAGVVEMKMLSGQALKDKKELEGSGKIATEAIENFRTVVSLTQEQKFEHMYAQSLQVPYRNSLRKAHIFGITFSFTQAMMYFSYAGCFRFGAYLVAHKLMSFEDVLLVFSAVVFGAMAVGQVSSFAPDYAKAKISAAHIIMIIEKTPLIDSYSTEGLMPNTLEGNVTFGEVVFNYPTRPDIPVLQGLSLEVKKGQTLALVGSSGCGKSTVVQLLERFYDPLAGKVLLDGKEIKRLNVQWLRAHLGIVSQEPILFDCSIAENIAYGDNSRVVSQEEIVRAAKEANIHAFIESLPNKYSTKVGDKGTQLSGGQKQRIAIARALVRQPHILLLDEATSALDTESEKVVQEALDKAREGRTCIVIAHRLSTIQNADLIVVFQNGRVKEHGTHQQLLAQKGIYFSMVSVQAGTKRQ

Row | SMILES | IC50 [1, 8] | selectivity ratio at 30 min [2] | IC50 [3] [nM] | EC50 [4] [nM] | EC50 [5] [nM] | TD50 ABCB1 [6, 9] [µM] | TD50 ABCG2 [7, 10] [µM] | ~Fold G2 Selective (B1/G2) [3] [fold] | IC50 ([1]; read-out: IC50 ABCB1 (efflux inhibition of JC-1 substrate)) [nM] | IC50 ([3]; read-out: IC50 ABCG2 (efflux inhibition of JC-1 substrate), Ig-MXP3 cells over-expressing ABCG2, averages of two to four replicates) [nM] | TD50 ABCB1 [6] [µM] | TD50 ABCG2 [7] [µM]
1 | COc1ccc(-c2cc3nc(-c4ccccc4)cc(N4CCN(C(=O)c5ccoc5)CC4)n3n2)cc1 [Compound 36] | 1440 ± 700 nM | 1.2 | 1160 ± 660 | 230 | 380 | 5.54 | >100 | – | – | – | – | –
2 | O=C(c1cccnc1)N1CCN(c2cc(-c3ccccc3)nc3cc(-c4cccc(Cl)c4)nn23)CC1 [Compound 20] | 570 ± 80 nM | 2.5 | 230 ± 150 | 170 | 130 | 4.72 | 10.30 | – | – | – | – | –
3 | CC(=O)N1CCN(c2cc(-c3ccco3)nc3cc(-c4cccc(Cl)c4)nn23)CC1 [Compound 87] | 800 nM | 1.4 | 560 | 80 | 580 | 17.60 | >100 | – | – | – | – | –
4 | COc1cccc(-c2cc(N3CCN(C(=O)c4ccoc4)CC3)n3nc(-c4ccccc4)cc3n2)c1 [Compound 65] | 16400 nM | 83 | 200 | 180 | 680 | 5.77 | 67.80 | 82.1 | – | – | – | –
5 | O=C(c1ccoc1)N1CCN(c2cc(-c3cccnc3)nc3cc(-c4cccc(Cl)c4)nn23)CC1 [Compound 30] | 770 ± 280 nM | 2.9 | 270 ± 120 | 200 | 20 | 5.33 | 5.77 | – | – | – | – | –
6 | O=C(Cc1ccccc1)N1CCN(c2cc(-c3ccccc3)nc3cc(-c4cccc(Cl)c4)nn23)CC1 [Compound 24] | 4680 ± 2690 nM | 0.8 | 5760 ± 3400 | 510 | 600 | 17.80 | >100 | – | – | – | – | –
7 | COc1ccccc1-c1cc2nc(-c3ccccc3)cc(N3CCN(C(=O)c4ccoc4)CC3)n2n1 [Compound 34] | 2170 ± 760 nM | 4.8 | 450 ± 170 | 450 | 490 | 4.37 | 6.50 | – | – | – | – | –
8 | CC(=O)N1CCN(c2cc(-c3ccco3)nc3cc(-c4ccccc4)nn23)CC1 [Compound 74] | 3640 nM | 7 | 520 | 190 | 930 | 10.10 | >100 | – | – | – | – | –
9 | COc1cccc(C(=O)N2CCN(c3cc(-c4ccccc4)nc4cc(-c5cccc(Cl)c5)nn34)CC2)c1 [Compound 15] | 2640 ± 640 nM | 0.6 | 4450 ± 4680 | 350 | 210 | >100 | >100 | – | – | – | – | –
10 | O=C(c1ccoc1)N1CCN(c2cc(-c3ccco3)nc3cc(-c4ccco4)nn23)CC1 [Compound 52] | 1700 nM | 0.7 | 2350 | 190 | 1210 | 1.93 | >100 | – | – | – | – | –
11 | COc1cccc(-c2cc3nc(-c4ccco4)cc(N4CCN(C(C)=O)CC4)n3n2)c1 [Compound 88] | 1640 nM | 0.9 | 1900 | 320 | 1180 | 49.30 | >100 | – | – | – | – | –
12 | O=C(c1ccoc1)N1CCN(c2cc(-c3ccncc3)nc3cc(-c4cccc(Cl)c4)nn23)CC1 [Compound 31] | 3680 ± 350 nM | 2.5 | 1460 ± 350 | 600 | 890 | 13.50 | 57.80 | – | – | – | – | –
13 | COc1cccc(-c2cc3nc(-c4ccco4)cc(N4CCN(C(=O)c5ccoc5)CC4)n3n2)c1 [Compound 56] | – | – | – | 470 | 1000 | – | – | 3.3 | 7400 | 2260 | 5.52 | >100
14 | O=C(c1ccoc1)N1CCN(c2cc(-c3ccoc3)nc3cc(-c4ccccc4)nn23)CC1 [Compound 61] | 1600 nM | 1.1 | 1400 | 420 | 760 | 7.33 | 18.30 | – | – | – | – | –
15 | COc1ccc(-c2cc3nc(-c4ccco4)cc(N4CCN(C(=O)c5ccoc5)CC4)n3n2)cc1 [Compound 57] | 3450 nM | 3.9 | 890 | 5770 | 760 | >100 | >100 | – | – | – | – | –
16 | O=C(c1ccncc1)N1CCN(c2cc(-c3ccccc3)nc3cc(-c4cccc(Cl)c4)nn23)CC1 [Compound 21] | 1160 ± 300 nM | 1.1 | 1030 ± 230 | 250 | 150 | 10.90 | 28.30 | – | – | – | – | –
17 | COc1ccccc1-c1cc(N2CCN(C(=O)c3ccoc3)CC2)n2nc(-c3ccccc3)cc2n1 [Compound 44] | 4520 nM and 4620 nM | 1.2 | 3660 ± 2540 | 170 | 680 | 3.73 | 7.62 | – | – | – | – | –
18 | O=C(c1ccoc1)N1CCN(c2cc(-c3ccco3)nc3cc(-c4cccc(Cl)c4)nn23)CC1 [Compound 53] | 6420 nM | 2.5 | 2550 | 530 | 1380 | 8.53 | 10.80 | – | – | – | – | –

Reference: patent US9056111B1, “Selective efflux inhibitors and related pharmaceutical compositions and methods of treatment” (STC.UNM, priority 2011, dated 2015)
